Assay results reported in ChEMBL document CHEMBL1201862, “PubChem BioAssay data set” (2004).
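Tested at 5 concentrations; 48 h exposure; 96-well plates; endpoints linearly interpolated, else capped at highest concentration. GI50: concentration for 50% inhibition of growth.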 The source made the active and inactive calls. Rule as the data show it: active = GI50 up to about 1.1 µM and inactive = higher.

Key:
Experiment in all cases: growth of human tumour cells (NCI), 48 h
OVCAR-8 = test system: OVCAR-8
KM12 = test system: KM12
HOP-92 = test system: HOP-92
HOP-62 = test system: HOP-62
NCI-H23 = test system: NCI-H23
SK-MEL-28 = test system: SK-MEL-28
NCI-H460 = test system: NCI-H460
U-251 = test system: U-251
CAKI-1 = test system: CAKI-1
HCT-116 = test system: HCT-116
786-0 = test system: 786-0
HCT-15 = test system: HCT-15
OVCAR-5 = test system: OVCAR-5
DU-145 = test system: DU-145
SK-MEL-5 = test system: SK-MEL-5
BT-549 = test system: BT-549
ACHN = test system: ACHN
SN12C = test system: SN12C
K562 = test system: K562
SR = test system: SR
MCF7 = test system: MCF7
MDA-N = test system: MDA-N
UO-31 = test system: UO-31
SK-MEL-2 = test system: SK-MEL-2
SNB-19 = test system: SNB-19
TK-10 = test system: TK-10
Malme-3M = test system: Malme-3M
HCC 2998 = test system: HCC 2998
OVCAR-4 = test system: OVCAR-4
A549 = test system: A549
MOLT-4 = test system: MOLT-4
RPMI-8226 = test system: RPMI-8226
HT-29 = test system: HT-29
M14 = test system: M14
LOX IMVI = test system: LOX IMVI
NCI/ADR-RES = test system: NCI/ADR-RES
MDA-MB-435 = test system: MDA-MB-435
HL-60 = test system: HL-60
UACC-257 = test system: UACC-257
OVCAR-3 = test system: OVCAR-3
EKVX = test system: EKVX
MDA-MB-231 = test system: MDA-MB-231
SF-295 = test system: SF-295
COLO 205 = test system: COLO 205
SW-620 = test system: SW-620
RXF 393 = test system: RXF 393
CCRF-CEM = test system: CCRF-CEM
NCI-H522 = test system: NCI-H522
IGROV-1 = test system: IGROV-1
SF-268 = test system: SF-268
SF-539 = test system: SF-539
Hs-578T = test system: Hs-578T
PC-3 = test system: PC-3
A498 = test system: A498
SNB-75 = test system: SNB-75
NCI-H226 = test system: NCI-H226

## O=C(c1cccc2ccccc12)C1(Br)S(=O)(=O)OCCOS1(=O)=O
OVCAR-8
  GI50: > 100 µM (inactive)
KM12
  GI50: > 100 µM (inactive)
HOP-92
  GI50: > 10 µM (inactive)
HOP-62
  GI50: > 100 µM (inactive)
NCI-H23
  GI50: > 100 µM (inactive)
SK-MEL-28
  GI50: > 100 µM (inactive)
NCI-H460
  GI50: > 100 µM (inactive)
U-251
  GI50: > 100 µM (inactive)
CAKI-1
  GI50: > 100 µM (inactive)
HCT-116
  GI50: > 100 µM (inactive)
786-0
  GI50: > 100 µM (inactive)
HCT-15
  GI50: > 100 µM
OVCAR-5
  GI50: > 100 µM (inactive)
DU-145
  GI50: > 100 µM (inactive)
SK-MEL-5
  GI50: > 100 µM (inactive)
BT-549
  GI50: > 100 µM (inactive)
ACHN
  GI50: > 100 µM (inactive)
SN12C
  GI50: > 100 µM (inactive)
K562
  GI50: > 10 µM (inactive)
SR
  GI50: > 100 µM (inactive)
MCF7
  GI50: > 100 µM (inactive)
MDA-N
  GI50: > 100 µM (inactive)
UO-31
  GI50: > 100 µM (inactive)
SK-MEL-2
  GI50: > 100 µM (inactive)
SNB-19
  GI50: > 100 µM (inactive)
TK-10
  GI50: > 100 µM (inactive)
Malme-3M
  GI50: > 100 µM (inactive)
HCC 2998
  GI50: > 100 µM (inactive)
OVCAR-4
  GI50: > 100 µM (inactive)
A549
  GI50: > 100 µM (inactive)
MOLT-4
  GI50: > 100 µM (inactive)
RPMI-8226
  GI50: > 100 µM (inactive)
HT-29
  GI50: > 100 µM (inactive)
M14
  GI50: > 100 µM (inactive)
LOX IMVI
  GI50: > 100 µM (inactive)
NCI/ADR-RES
  GI50: > 100 µM (inactive)
MDA-MB-435
  GI50: > 100 µM (inactive)
HL-60
  GI50: > 100 µM (inactive)
UACC-257
  GI50: > 100 µM (inactive)
OVCAR-3
  GI50: > 100 µM (inactive)
EKVX
  GI50: > 100 µM (inactive)
MDA-MB-231
  GI50: > 100 µM (inactive)
SF-295
  GI50: > 100 µM (inactive)
COLO 205
  GI50: > 100 µM (inactive)

## CN(C)CCNC(=O)c1cc(NC(=O)c2cc(NC(=O)CC/C=C3/[C@@H]4CC[C@H]3N=N4)cn2C)cn1C
OVCAR-8
  GI50: > 100 µM (inactive)
SW-620
  GI50: > 100 µM (inactive)
KM12
  GI50: > 100 µM (inactive)
HOP-92
  GI50: > 100 µM (inactive)
HOP-62
  GI50: > 100 µM (inactive)
RXF 393
  GI50: > 100 µM (inactive)
CCRF-CEM
  GI50: > 100 µM (inactive)
NCI-H23
  GI50: > 100 µM (inactive)
SK-MEL-28
  GI50: > 100 µM (inactive)
NCI-H460
  GI50: > 100 µM (inactive)
U-251
  GI50: > 100 µM (inactive)
CAKI-1
  GI50: > 100 µM (inactive)
HCT-116
  GI50: > 100 µM (inactive)
786-0
  GI50: > 100 µM (inactive)
HCT-15
  GI50: > 100 µM
OVCAR-5
  GI50: > 100 µM (inactive)
DU-145
  GI50: > 100 µM (inactive)
SK-MEL-5
  GI50: > 100 µM (inactive)
BT-549
  GI50: > 100 µM (inactive)
NCI-H522
  GI50: > 100 µM (inactive)
ACHN
  GI50: > 100 µM (inactive)
SN12C
  GI50: > 100 µM (inactive)
IGROV-1
  GI50: > 100 µM (inactive)
K562
  GI50: > 100 µM (inactive)
SR
  GI50: > 100 µM (inactive)
MCF7
  GI50: > 100 µM (inactive)
MDA-N
  GI50: > 100 µM (inactive)
SF-268
  GI50: > 100 µM (inactive)
UO-31
  GI50: > 100 µM (inactive)
SF-539
  GI50: > 100 µM (inactive)
SK-MEL-2
  GI50: > 100 µM (inactive)
SNB-19
  GI50: > 100 µM (inactive)
Hs-578T
  GI50: > 100 µM (inactive)
TK-10
  GI50: > 100 µM (inactive)
Malme-3M
  GI50: 70.3 µM (inactive)
HCC 2998
  GI50: > 100 µM (inactive)
OVCAR-4
  GI50: > 100 µM (inactive)
A549
  GI50: > 100 µM (inactive)
PC-3
  GI50: > 100 µM (inactive)
MOLT-4
  GI50: > 100 µM (inactive)
RPMI-8226
  GI50: > 100 µM (inactive)
HT-29
  GI50: > 100 µM (inactive)
A498
  GI50: > 100 µM (inactive)
M14
  GI50: > 100 µM (inactive)
SNB-75
  GI50: > 100 µM (inactive)
LOX IMVI
  GI50: > 100 µM (inactive)
NCI/ADR-RES
  GI50: > 100 µM (inactive)
MDA-MB-435
  GI50: > 100 µM (inactive)
NCI-H226
  GI50: > 100 µM (inactive)
HL-60
  GI50: > 100 µM (inactive)
UACC-257
  GI50: > 100 µM (inactive)
OVCAR-3
  GI50: > 100 µM (inactive)
EKVX
  GI50: > 100 µM (inactive)
MDA-MB-231
  GI50: > 100 µM (inactive)
SF-295
  GI50: > 100 µM (inactive)
COLO 205
  GI50: > 100 µM (inactive)
